Marks after values point to notes of the source that are not given here.
What was measured:
[1] = test system: A431 human epidermal carcinoma xenograft; assay: A431 human epidermal carcinoma xenograft model; assay type: in vivo, nude mice; settings: for Tumor Weight (x ± S.D.) / Tumor Inhibitor Rate / Relative Tumor Volume (x ± S.D.) / T/C / Tumor Volume (x ± S.D.): A431 xenograft; for Tumor Inhibitor Rate: by tumor weight; for Relative Tumor Volume (x ± S.D.) / T/C / Tumor Volume (x ± S.D.): end of the assay
Experimental: Tumor cells were cultured in an incubator at 37° C. with 5% CO2 using MEM medium containing 10% inactivated fetal calf serum, 100 U/ml penicillin and 100 µg/ml streptomycin. The tumor cells in logarithmic growth phase were collected, adjusted to an appropriate density and injected subcutaneously into nude mice (0.2 ml per mouse). An xenograft model was established after a tumor was formed in the nude mice and passaged in vivo for more than three generations.
The above-mentioned tumor-bearing mice were sacrificed by cervical dislocation. The tumor was taken out and cut into small tumor pieces (about 2 mm×2 mm×2 mm) under sterile conditions. The small tumor pieces were inoculated subcutaneously into nude mice with a trocar. […] The animals in each group were subjected to intragastric administration once a day for 14 consecutive days. The day of grouping is assigned as day 0.
Tumor volume is calculated as: volume =0.5×long diameter×short diameter^2. The relative tumor volume (RTV) was calculated based on the measurements as: RTV=Vt/V0, wherein V0 is the tumor volume measured when the animals were grouped to be administrated (i.e., d0), and Vt is the tumor volume when each measurement was taken. Relative tumor proliferation rate T/C was calculated based on relative tumor volume, in which T is the mean value of the relative tumor volume of the treatment group, and C is the mean value of the relative tumor volume of the solvent control group. T/C was calculated as follows: T/C=TRTV/CRTV×100% (TRTV: RTV of the treatment group; CRTV:
RTV of the solvent control group) Inhibition rate (%)=(mean tumor weight of the solvent control group−mean tumor weight of the treatment group)/mean tumor weight of the solvent control group×100%. Percentage of body weight change=Wn/W0×100% (Wn: mean body weight of experimental animals in each group at day n, W0: mean body weight of experimental animals in each group at day 0).
One-Way ANOVA test was conducted in SPSS13.0, performing statistical analysis between groups.

[2] = test system: human head and neck cancer cell lines Fadu; assay: In vitro inhibitory action on human tumor cells, Fadu (MTT); assay type: cell-based; settings: 72 h, MTT assay, usually 3 days
Experimental: Human epidermoid carcinoma cell line A431, human non-small cell lung cancer cell line HCC827, head and neck cancer cell lines Fadu and human pancreatic cancer cell line AsPC-1 were purchased from Cell Bank, Chinese Academy of Sciences.
3.2 Cell culture method: cells were cultured in the complete medium at 37° C. under 5% CO2 and saturated humidity until logarithmic growth phase, i.e., adherent cells substantially approach complete confluence, and then collected for subsequent assay. For the adherent cells, they were firstly digested with trypsin/EDTA to detach.
3.3 A certain number of cells were seeded into 96-well cell culture plates (hereinafter referred to as 96-well plates). […] Finally, total cellular protein in the wells was determined using SRB assay, or cell viability was determined with MTT assay.
3.3.1 The cell seeding concentration was determined by cell growth curve assay which completely simulates compound inhibition assay process. […]
3.4 Dilution and addition of compounds: the concentration of DMSO that can be tolerant by the cells was determined by DMSO tolerance assay, and thereby selecting the dilution and addition methods of compounds. The effects of different concentrations of DMSO on cell growth were determined by DMSO tolerance assay. […] Two methods are finally determined as follows. […]

[3] = A431 xenograft nude mice, 20, 40 and 80 mg/kg intragastric once a day for 14 days
[4] = 20 mg/kg intragastric once a day for 14 days
[5] = 40 mg/kg intragastric once a day for 14 days
[6] = 80 mg/kg intragastric once a day for 14 days

## COCCOc1cc2ncnc(Nc3ccc(F)c(Cl)c3)c2cc1NC(=O)C=C1CCN(CCOC)CC1.CS(=O)(=O)O [Compound 3, N-[4-(3-chloro-4-fluorophenylamino)-7-(2-methoxyethoxy)quinazolin-6-yl]-2-[1-(2-methoxyethyl)piperidin-4-ylidene]acetamide dimethylsulfonate]
[1]; [3]
  Body weights of the experimental animals: not significantly reduced
  abnormality in the experimental animals: no significant abnormality was observed
[1]; [4]
  Tumor Weight (x ± S.D.): 0.232 ± 0.312 g
  Tumor Inhibitor Rate: 68.6%
  Relative Tumor Volume (x ± S.D.): 2.3 ± 1.5
  T/C: 30.6%
  Tumor Volume (x ± S.D.): 424.9 ± 434.0*** mm^3
[1]; [5]
  Tumor Weight (x ± S.D.): 0.199 ± 0.153 g
  Tumor Inhibitor Rate: 73.2%
  Relative Tumor Volume (x ± S.D.): 2.8 ± 2.3
  T/C: 37.7%
  Tumor Volume (x ± S.D.): 418.9 ± 284.7*** mm^3
[1]; [6]
  Tumor Weight (x ± S.D.): 0.107 ± 0.126 g
  Tumor Inhibitor Rate: 85.6%
  Relative Tumor Volume (x ± S.D.): 1.4 ± 0.9
  T/C: 19.1%
  Tumor Volume (x ± S.D.): 254.7 ± 228.2*** mm^3
[2]
  IC50: 132 nM
